According to patent US6737383B1, “Herbicidal oxadiazolidines” (priority 1999, dated 2004):

Assays:
[1] = tested on: crabgrass; experiment: Test B pre/postemergence crabgrass; assay type: in vivo, Digitaria sanguinalis
How it was run: (§1)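 Response is a visual 0-to-10 score relative to untreated plants, where 0 means no effect and 10 means complete control, taken twelve to sixteen days after application. Treatments went onto soil at planting and onto foliage of 1- to 4-leaf plants, using a surfactant-containing non-phytotoxic solvent.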

[2] = tested on: soybean; experiment: Test B pre/postemergence soybean; assay type: in vivo, Glycine max
How it was run: as §1

[3] = tested on: corn; experiment: Test B pre/postemergence corn; assay type: in vivo, Zea mays
How it was run: as §1

[4] = tested on: sugar beet; experiment: Test B pre/postemergence sugar beet; assay type: in vivo, Beta vulgaris
How it was run: as §1

[5] = tested on: wild oat; experiment: Test B pre/postemergence wild oat; assay type: in vivo, Avena fatua
How it was run: as §1

[6] = tested on: purple nutsedge; experiment: Test B pre/postemergence purple nutsedge; assay type: in vivo, Cyperus rotundus
How it was run: as §1

[7] = tested on: cocklebur; experiment: Test B pre/postemergence cocklebur; assay type: in vivo, Xanthium strumarium
How it was run: as §1

[8] = tested on: bedstraw; experiment: Test B pre/postemergence bedstraw; assay type: in vivo, Galium aparine
How it was run: as §1

[9] = tested on: surinam grass; experiment: Test B pre/postemergence surinam grass; assay type: in vivo, Brachiaria decumbens
How it was run: as §1

[10] = tested on: morningglory; experiment: Test B pre/postemergence morningglory; assay type: in vivo, Ipomoea hederacea
How it was run: as §1

[11] = tested on: giant foxtail; experiment: Test B pre/postemergence giant foxtail; assay type: in vivo, Setaria faberii
How it was run: as §1

[12] = tested on: blackgrass; experiment: Test B pre/postemergence blackgrass; assay type: in vivo, Alopecurus myosuroides
How it was run: as §1

[13] = tested on: rape; experiment: Test B pre/postemergence rape; assay type: in vivo, Brassica napus
How it was run: as §1

[14] = tested on: wheat; experiment: Test B pre/postemergence wheat; assay type: in vivo, Triticum aestivum
How it was run: as §1

[15] = tested on: pigweed; experiment: Test B pre/postemergence pigweed; assay type: in vivo, Amaranthus retroflexus
How it was run: as §1

[16] = tested on: velvetleaf; experiment: Test B pre/postemergence velvetleaf; assay type: in vivo, Abutilon theophrasti
How it was run: as §1

[17] = Preemergence, Rate 62 g/ha, scale of 0 to 10 where 0 is no effect and 10 is complete control
[18] = Preemergence, Rate 250 g/ha, scale of 0 to 10 where 0 is no effect and 10 is complete control
[19] = Preemergence, Rate 500 g/ha, scale of 0 to 10 where 0 is no effect and 10 is complete control
[20] = Rate 125 g/ha, Preemergence, scale of 0 to 10 where 0 is no effect and 10 is complete control
[21] = Rate 500 g/ha, Postemergence, scale 0 to 10, 0 no effect, 10 complete control
[22] = Rate 62 g/ha, Postemergence, scale of 0 to 10 where 0 is no effect and 10 is complete control
[23] = Rate 125 g/ha, Postemergence, scale 0 to 10

COC(=O)C=CCn1c(=O)on(C(=O)N(c2ccc(F)cc2)C(C)C)c1=O [Compound 263]
3: Giant foxtail plant response rating [11, 21] | Plant response rating (0 to 10; 0 is no effect, 10 is complete control), Blackgrass ([12]; Rate 250 g/ha, Postemergence) | Plant response rating, Velvetleaf [16, 19]
1: Soybean plant response rating [2, 21]
4: Plant response rating (0 to 10; 0 is no effect, 10 is complete control), Morningglory ([10]; Rate 250 g/ha, Postemergence)
2: Plant response rating, Crabgrass [1, 19] | Crabgrass plant response rating [1, 21] | Giant foxtail plant response rating [11, 17] | Wheat plant response rating [14, 21] | Velvetleaf plant response rating [16, 21]
9: Giant foxtail plant response rating [11, 18] | Plant response rating, Giant foxtail [11, 19] | Giant foxtail plant response rating [11, 20]
7: Morningglory plant response rating [10, 21]
5: Blackgrass plant response rating [12, 21]
0: Crabgrass plant response rating [1, 17] | Crabgrass plant response rating [1, 18] | Crabgrass plant response rating [1, 20] | Plant response rating (0 to 10; 0 is no effect, 10 is complete control), Crabgrass ([1]; Rate 250 g/ha, Postemergence) | Soybean plant response rating [2, 17] | Soybean plant response rating [2, 18] | Plant response rating, Soybean [2, 19] | Soybean plant response rating [2, 20] | Corn plant response rating [3, 17] | Corn plant response rating [3, 18] | Plant response rating, Corn [3, 19] | Corn plant response rating [3, 22] | Corn plant response rating [3, 23] | Corn plant response rating [3, 20] | Plant response rating (0 to 10; 0 is no effect, 10 is complete control), Corn ([3]; Rate 250 g/ha, Postemergence) | Corn plant response rating [3, 21] | Sugarbeets plant response rating [4, 17] | Sugarbeets plant response rating [4, 18] | Plant response rating, Sugarbeets [4, 19] | Sugarbeets plant response rating [4, 20] | Sugarbeets plant response rating [4, 21] | Wild oats plant response rating [5, 17] | Wild oats plant response rating [5, 18] | Plant response rating, Wild oats [5, 19] | Wild oats plant response rating [5, 20] | Wild oats plant response rating [5, 21] | Nutsedge plant response rating [6, 17] | Nutsedge plant response rating [6, 18] | Plant response rating, Nutsedge [6, 19] | Nutsedge plant response rating [6, 20] | Plant response rating (0 to 10; 0 is no effect, 10 is complete control), Nutsedge ([6]; Rate 250 g/ha, Postemergence) | Nutsedge plant response rating [6, 21] | Cocklebur plant response rating [7, 17] | Cocklebur plant response rating [7, 18] | Cocklebur plant response rating [7, 22] | Cocklebur plant response rating [7, 23] | Cocklebur plant response rating [7, 20] | Plant response rating (0 to 10; 0 is no effect, 10 is complete control), Cocklebur ([7]; Rate 250 g/ha, Postemergence) | Cocklebur plant response rating [7, 21] | Bedstraw plant response rating [8, 17] | Bedstraw plant response rating [8, 18] | Plant response rating, Bedstraw [8, 19] | Bedstraw plant response rating [8, 22] | Bedstraw plant response rating [8, 23] | Bedstraw plant response rating [8, 20] | B. signalgrass plant response rating [9, 17] | B. signalgrass plant response rating [9, 18] | Plant response rating, B. signalgrass [9, 19] | B. signalgrass plant response rating [9, 22] | B. signalgrass plant response rating ([9]; Rate 125 g/ha, Postemergence, scale 0 (no effect) to 10 (complete control)) | B. signalgrass plant response rating [9, 20] | Plant response rating (0 to 10; 0 is no effect, 10 is complete control), B. signalgrass ([9]; Rate 250 g/ha, Postemergence) | B. signalgrass plant response rating [9, 21] | Morningglory plant response rating [10, 17] | Morningglory plant response rating [10, 18] | Plant response rating, Morningglory [10, 19] | Morningglory plant response rating [10, 20] | Plant response rating (0 to 10; 0 is no effect, 10 is complete control), Giant foxtail ([11]; Rate 250 g/ha, Postemergence) | Blackgrass plant response rating [12, 17] | Blackgrass plant response rating [12, 18] | Plant response rating, Blackgrass [12, 19] | Blackgrass plant response rating [12, 22] | Blackgrass plant response rating [12, 23] | Blackgrass plant response rating [12, 20] | Rape plant response rating [13, 17] | Rape plant response rating [13, 18] | Plant response rating, Rape [13, 19] | Rape plant response rating [13, 20] | Plant response rating (0 to 10; 0 is no effect, 10 is complete control), Rape ([13]; Rate 250 g/ha, Postemergence) | Rape plant response rating [13, 21] | Wheat plant response rating [14, 17] | Wheat plant response rating [14, 18] | Plant response rating, Wheat [14, 19] | Wheat plant response rating [14, 20] | Redroot pigweed plant response rating [15, 17] | Redroot pigweed plant response rating [15, 18] | Plant response rating, Redroot pigweed [15, 19] | Redroot pigweed plant response rating [15, 20] | Plant response rating (0 to 10; 0 is no effect, 10 is complete control), Redroot pigweed ([15]; Rate 250 g/ha, Postemergence) | Redroot pigweed plant response rating [15, 21] | Velvetleaf plant response rating [16, 17] | Velvetleaf plant response rating [16, 18] | Velvetleaf plant response rating [16, 20]
